Measurements taken from publication PMC12677599 (Advanced Science, 2025).
Read-outs that look alike come from different tables or passages of the source. Where a SMILES comes first, the peptide text is derived from it. [ ]: non-standard residue; d: D form. The star is where a group is joined. PEG4 = NCCOCCOCCOCCOCCC(=O)O; Piperidide = C1CCN(*)CC1

How the values were obtained:
Format in all cases: cell-based
H460 cell line = assay: cells
Protocol: (§1) MTT assay was conducted as previously described.^[ [44] ^] Tumor cell lines (NCI‐H460, NCI‐H838, HT‐1080, MCF‐7, PC‐3, U‐251‐MG, and U‐87 MG) were seeded in 96‐well plates at a density of 8000 cells per well in a volume of 100 µL and cultured for 24 h. Normal cell lines (HaCaT, HMEC‐1, MRC‐5, and HEK‐293) were seeded in 96‐well plates at a density of 10 000 cells per well in a volume of 100 µL and cultured for 48 h. After that, only tumor cell lines were starved with 100 µL of SFM for a further 4–6 h. Subsequently, cells were treated with 100 µL of compound solutions with different concentrations for 24 h. Cells treated with SFM and 0.5% DMSO in SFM served as blank control and growth control, respectively. Ten µL of MTT solution (5 mg mL^−1) was added to each well, followed by an additional incubation period of 2 h for tumor cells and 4 h for normal cells. Finally, the solvent in each well was swapped with 100 µL of DMSO to dissolve the formazan crystals. The absorbance was measured by the plate reader at 570 nm.
(§2) The cell viability was calculated (1) Cellviability%=ODSamplegroup−ODBlank/ODGrowthgroup−ODBlank×100%

HEK-293 normal cell line = assay: cells
Protocol: as §1, §2

erythrocytes = conditions: red cells of horse, 2 h
Protocol: Defibrinated horse blood (1 mL) was washed 3 times with 0.9% NaCl solution to remove plasma and then resuspended in 20 mL of 0.9% NaCl solution to obtain a red blood cell (RBC) suspension. Aliquots of the RBC suspension (100 µL) were incubated with 100 µL of compound solutions at concentrations ranging from 100 to 1.5625 µM (twofold serial dilution) for 2 h at 37 °C. RBCs treated with 0.9% NaCl solution and 1% Triton X‐100 solution served as blank and positive controls, respectively. Subsequently, the samples were centrifuged at 900 × g for 10 min, and the absorbance of the supernatant was measured at 570 nm.
The hemolysis ratio was calculated as (2) Hemolysis%=ODSamplegroup−ODBlank/ODPositivegroup−ODBlank×100%

In the case of CC[C@H](C)[C@H](NC(=O)[C@H](CCCCN)NC(=O)[C@@H]1CCCN1C(=O)[C@H](CC(C)C)NC(=O)[C@@H](NC(=O)[C@H](CO)NC(=O)[C@H](CCC(=O)N1CCCCC1)NC(=O)[C@H](CC(C)C)NC(=O)[C@H](CC(=O)O)NC(=O)[C@H](CC(=O)O)NC(=O)[C@H](Cc1ccccc1)NC(=O)[C@@H](NC(=O)[C@H](CCCCN)NC(=O)[C@@H]1CCCN1C(=O)[C@H](Cc1ccccc1)NC(=O)[C@@H](N)Cc1ccccc1)[C@@H](C)CC)[C@@H](C)CC)C(=O)N[C@@H](CC(C)C)C(=O)NCC(=O)NCC(=O)NCC(=O)NCC(=O)NCC(=O)NCC(=O)NCC(=O)NCCOCCOCCOCCOCCC(=O)NCCOCCOCCOCCOCCC(=O)NCCOCCOCCOCCOCCC(=O)NCCOCCOCCOCCOCCC(N)=O [compound 288] (H-FFPKIFDDLE(Piperidide)SILPKILGGGGGGG[PEG4][PEG4][PEG4][PEG4]-NH2), the IC50 (H460 cell line; 24 h) is reported as > 100 µM, the IC50 (HEK-293 normal cell line; 24 h) is reported as > 100 µM and the “HC10 (concentration causing 10% of erythrocytes lysis)” value (erythrocytes) is reported as >100 µM.

In the case of CC[C@H](C)[C@H](NC(=O)[C@H](CCCCN)NC(=O)[C@@H]1CCCN1C(=O)[C@H](CC(C)C)NC(=O)[C@@H](NC(=O)[C@H](CO)NC(=O)[C@H](CCC(=O)N1CCCCC1)NC(=O)[C@H](CC(C)C)NC(=O)[C@H](CC(=O)O)NC(=O)[C@H](CC(=O)O)NC(=O)[C@H](Cc1ccccc1)NC(=O)[C@@H](NC(=O)[C@H](CCCCN)NC(=O)[C@@H]1CCCN1C(=O)[C@H](Cc1ccccc1)NC(=O)[C@@H](N)Cc1ccccc1)[C@@H](C)CC)[C@@H](C)CC)C(=O)N[C@@H](CC(C)C)C(=O)NCC(=O)N1CCC[C@H]1C(=O)N[C@@H](CC(C)C)C(=O)NCC(=O)N[C@@H](CC(C)C)C(=O)N[C@@H](C)C(=O)NCC(=O)NCCOCCOCCOCCOCCC(N)=O [compound 204] (H-FFPKIFDDLE(Piperidide)SILPKILGPLGLAG[PEG4]-NH2), the IC50 (H460 cell line; 24 h) is reported as 20 ± 1.05 µM, the IC50 (HEK-293 normal cell line; 24 h) is reported as 34.1 ± 3.41 µM and the “HC10 (concentration causing 10% of erythrocytes lysis)” value (erythrocytes) is reported as 46.10 µM.

Work on O=c1[nH]cc(F)c(=O)[nH]1 [5-Fluorouracil, 5-fluorouracil, reference compound] yielded an IC50 (H460 cell line; Homo sapiens, NCI-H460, read-out: IC50 Value of chemotherapeutics, H460) of 432 ± 61.2 µM and an IC50 (HEK-293 normal cell line; Homo sapiens, HEK293, read-out: IC50 Value of chemotherapeutics, HEK-293) of 430 ± 40.2 µM.

CC(=O)O[C@H]1C(=O)[C@@]2(C)[C@H]([C@H](OC(=O)c3ccccc3)[C@]3(O)C[C@H](OC(=O)[C@H](O)[C@@H](NC(=O)c4ccccc4)c4ccccc4)C(C)=C1C3(C)C)[C@]1(OC(C)=O)CO[C@@H]1C[C@@H]2O [Paclitaxel, paclitaxel, reference compound] was tested, and the IC50 (H460 cell line; Homo sapiens, NCI-H460, Table S11, MTT, read-out: IC50 Value of chemotherapeutics, H460) was 220 ± 65 µM and the IC50 (HEK-293 normal cell line; Homo sapiens, HEK293, Table S11, MTT, read-out: IC50 Value of chemotherapeutics, HEK-293) was < 7 µM.

CC[C@H](C)[C@H](NC(=O)[C@H](CCCCN)NC(=O)[C@@H]1CCCN1C(=O)[C@H](CC(C)C)NC(=O)[C@@H](NC(=O)[C@H](CO)NC(=O)[C@H](CCC(=O)N1CCCCC1)NC(=O)[C@H](CC(C)C)NC(=O)[C@H](CC(=O)O)NC(=O)[C@H](CC(=O)O)NC(=O)[C@H](Cc1ccccc1)NC(=O)[C@@H](NC(=O)[C@H](CCCCN)NC(=O)[C@@H]1CCCN1C(=O)[C@H](Cc1ccccc1)NC(=O)[C@H](Cc1ccccc1)NC(=O)[C@H](CCCNC(=N)N)NC(=O)[C@H](C)N)[C@@H](C)CC)[C@@H](C)CC)C(=O)N[C@@H](CC(C)C)C(N)=O [239-3] (H-ARFFPKIFDDLE(Piperidide)SILPKIL-NH2) was tested, and the IC50 (H460 cell line; 24 h) was 14.7 ± 1.22 µM, the IC50 (HEK-293 normal cell line; 24 h) was 15 ± 1.38 µM and the “HC10 (concentration causing 10% of erythrocytes lysis)” value (erythrocytes) was 24.72 µM.

For CC[C@H](C)[C@H](NC(=O)[C@H](CCCCN)NC(=O)[C@@H]1CCCN1C(=O)[C@H](CC(C)C)NC(=O)[C@@H](NC(=O)[C@H](CO)NC(=O)[C@H](CCC(=O)N1CCCCC1)NC(=O)[C@H](CC(C)C)NC(=O)[C@H](CC(=O)O)NC(=O)[C@H](CC(=O)O)NC(=O)[C@H](Cc1ccccc1)NC(=O)[C@@H](NC(=O)[C@H](CCCCN)NC(=O)[C@@H]1CCCN1C(=O)[C@H](Cc1ccccc1)NC(=O)[C@H](Cc1ccccc1)NC(=O)[C@@H](NC(=O)[C@H](C)N)[C@@H](C)O)[C@@H](C)CC)[C@@H](C)CC)C(=O)N[C@@H](CC(C)C)C(N)=O [239-2] (H-ATFFPKIFDDLE(Piperidide)SILPKIL-NH2), the IC50 (H460 cell line; 24 h) was 36.8 ± 3.25 µM, the IC50 (HEK-293 normal cell line; 24 h) was 44.8 ± 4.06 µM and the “HC10 (concentration causing 10% of erythrocytes lysis)” value (erythrocytes) was 57.04 µM.

N.N.[Cl][Pt][Cl] [Cisplatin, cisplatin, reference compound] gave an IC50 (H460 cell line; Table S11, MTT, read-out: IC50 Value of chemotherapeutics, H460) of 203 ± 26.9 µM and an IC50 (HEK-293 normal cell line; Table S11, MTT, read-out: IC50 Value of chemotherapeutics, HEK-293) of 162 ± 18.8 µM.
